Our source for the EC50 values is patent US11518760B2 (Liverpool School of Tropical Medicine, priority 2017, dated 2022).

This assay has as its system C6/36 Aedes albopictus cell line infected with Wolbachia pipientis (Wolbachia strain wAlbB). The experiment in a line: In vitro insect cell line assay (anti-Wolbachia screen, SYTO 11 high content imaging). It counts as cell-based. The following applies: 168 h; C6/36 Aedes albopictus cells infected with Wolbachia pipientis wAlbB, 7 days incubation, SYTO 11 imaging; read-out: In vitro anti-Wolbachia activity. In a few lines: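 Wolbachia wAlbB-infected C6/36 Aedes albopictus cells were exposed to compounds at a final 5 μM for 7 days at 26 °C, with DMSO-medium wells as untreated controls. Cells were then stained with SYTO 11 for 15 min, imaged by high-content microscopy and scored by texture analysis.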
Consider `CC1(C)CCN(c2nc(NCc3cccnc3C(F)(F)F)c3cccnc3n2)CC1` [Example 233, 2-(4,4-dimethyipiperidin-1-yl)-N-((2-(trifluoromethyl)pyridin-3-yl)methyl)pyrido[2,3-d]pyrimidin-4-amine], for which the EC50 lay in the range of 10 to 100 nM. Consider `FC1(F)CCN(c2nc(NCc3cccnc3C(F)(F)F)c3cccnc3n2)C1` [Example 194, 2-(3,3-difluoropyrrolidin-1-yl)-N-((2-(trifluoromethyl)pyridin-3-yl)methyl)pyrido[2,3-d]pyrimidin-4-amine], for which the EC50 fell in the range of 1 to 10 nM. As for `Cc1ccc(Nc2ncnc3ccsc23)c(C)c1` [Example 31, N-(2,4-dimethylphenyl)thieno[3,2-d]pyrimidin-4-amine], the figure is 1000 to 100000 nM; as for `CC1(C#N)CCN(c2nc(NCc3ccccc3C(F)(F)F)c3cccnc3n2)CC1` [Example 261, (2-(trifluoromethyl)pyridin-3-yl)metha 4-methyl-1-(4-((2-(trifluoromethyl)benzyl)amino)pyrido[2,3-d]pyrimidin-2-yl)piperidine-4-carbonitrile], less than 0.01 nM; as for `FC(F)(F)c1ncccc1CNc1ncnc2ccsc12` [Example 103, N-((2-(trifluoromethyl)pyridin-3-yl)methyl)thieno[3,2-d]pyrimidin-4-amine], 10 to 100 nM.

On to `Cc1csc2c(NC(C)c3ccccc3C(F)(F)F)ncnc12` (stereo not drawn) [Example 105, 7-methyl-N-(1-(2-(trifluoromethyl)phenyl)ethyl)thieno[3,2-d]pyrimidin-4-amine], for which the EC50 was in the range of 1000 to 100000 nM.

Turning to `FC(F)(F)c1ncccc1CNc1nc(CN2CC(C(F)(F)F)C2)nc2ncccc12` [Example 231, 2-((3-(trifluoromethyl)azetidin-1-yl)methyl)-N-((2-(trifluoromethyl)pyridin-3-yl)methyl)pyrido[2,3-d]pyrimidin-4-amine], the EC50 lay within 100 to 1000 nM. With `CC1COC[C@@H](C)N1c1nc(NCc2ccccc2C(F)(F)F)c2cccnc2n1` (stereo partly drawn) [Example 277, 2-((3R)-3,5-dimethylmorpholino)-N-(2-(trifluoromethyl)benzyl)pyrido[2,3-d]pyrimidin-4-amine], the EC50 was 10 to 100 nM. `CN(Cc1ccc(F)cc1C(F)(F)F)c1ncnc2ccccc12` [Example 75, N-(4-fluoro-2-(trifluoromethyl)benzyl)-N-methylquinazolin-4-amine]: the EC50 fell in the range of 100 to 1000 nM.

As to `C[C@@H]1CO[C@@H](C)CN1c1nc(NCc2cccnc2C(F)(F)F)c2cccnc2n1` [Example 271, 2-((2S,5R)-2,5-dimethylmorpholino)-N-((2-(trifluoromethyl)pyridin-3-yl)methyl)pyrido[2,3-d]pyrimidin-4-amine], the EC50 lay in the range of 0.01 to 1 nM. For the compound `CC(C)Nc1nc(N2CCCN2c2ccccc2C(F)(F)F)c2cccnc2n1` [Example 189, N-isopropyl-4-(2-(2-(trifluoromethyl)phenyl)pyrazolidin-1-yl)pyrido[2,3-d]pyrimidin-2-amine], the EC50 fell in the range of 1000 to 100000 nM. For `FC(F)(F)c1ccccc1CNc1nc(N2CCCC2)nc2ccsc12` [Example 93, 2-(pyrrolidin-1-yl)-N-(2-(trifluoromethyl)benzyl)thieno[3,2-d]pyrimidin-4-amine] the value was 100 to 1000 nM; for `C[C@H]1COCCN1c1nc(NCc2ccccc2C(F)(F)F)c2cccnc2n1` [Example 208, (S)-2-(3-methylmorpholino)-N-(2-(trifluoromethyl)benzyl)pyrido[2,3-d]pyrimidin-4-amine], less than 0.01 nM.

Take `C[C@@H]1COCCN1c1nc(N2CCC2c2ccccc2C(F)(F)F)c2cccnc2n1` (stereo partly drawn) [Example 290, (3R)-3-methyl-4-(4-(2-(2-(trifluoromethyl)phenyl)azetidin-1-yl)pyrido[2,3-d]pyrimidin-2-yl)morpholine]: the EC50 fell in the range of 0.01 to 1 nM.

As to `CC(=O)c1nc(NCc2ccccc2C(F)(F)F)c2sccc2n1` [Example 87], the EC50 was in the range of 100 to 1000 nM. For `CC(C)Nc1nc(NCc2cccnc2C(F)(F)F)c2ccccc2n1` [Example 151, N^2-isopropyl-N^4-((2-(trifluoromethyl)pyridin-3-yl)methyl)quinazoline-2,4-diamine] the value was 100 to 1000 nM; for `FC(F)C1CN(c2nc(NCc3ccccc3C(F)(F)F)c3cccnc3n2)CCO1` (stereo not drawn) [Example 284, 2-(2-(difluoromethyl)morpholino)-N-(2-(trifluoromethyl)benzyl)pyrido[2,3-d]pyrimidin-4-amine], less than 0.01 nM. For `COc1ccc2c(NCc3cccnc3C(F)(F)F)nc(N3CCOCC3C)nc2n1` (stereo not drawn) [Example 305, 7-methoxy-2-(3-methylmorpholino)-N-((2-(trifluoromethyl)pyridin-3-yl)methyl)pyrido[2,3-d]pyrimidin-4-amine], the EC50 lay in the range of 1000 to 100000 nM. As for `CC1CN(c2nc(NCc3ccccc3C(F)(F)F)c3cccnc3n2)CCO1` (stereo not drawn) [Example 248, 2-(2-methylmorpholino)-N-(2-(trifluoromethyl)benzyl)pyrido[2,3-d]pyrimidin-4-amine], the figure is 0.01 to 1 nM; as for `CC(C)Nc1nc(N2CCCCC2c2ccccc2C(F)(F)F)c2cccnc2n1` (stereo not drawn) [Example 185, N-isopropyl-4-(2-(2-(trifluoromethyl)phenyl)piperidin-1-yl)pyrido[2,3-d]pyrimidin-2-amine], 1000 to 100000 nM; as for `CC(C)Nc1nc(NCc2ccc(C(F)(F)F)cc2)c2ncccc2n1` [Example 124, N^2-isopropyl-N^4-(4-(trifluoromethyl)benzyl)pyrido[3,2-d]pyrimidine-2,4-diamine], 1000 to 100000 nM.

With `CC1(C)COCCN1c1nc(NCc2ccccc2C(F)(F)F)c2cccnc2n1` [Example 246, 2-(3,3-dimethylmorpholino)-N-(2-(trifluoromethyl)benzyl)pyrido[2,3-d]pyrimidin-4-amine], the EC50 was 100 to 1000 nM.

In the case of `FC(F)(F)c1ncccc1C1CCN1c1nc(N2CCC(Cl)CC2)nc2ncccc12` (stereo not drawn) [Example 217, 2-(4-chloropiperidin-1-yl)-4-(2-(2-(trifluoromethyl)pyridin-3-yl)azetidin-1-yl)pyrido[2,3-d]pyrimidine], the EC50 was less than 0.01 nM. For `CC(C)Nc1nc(NC(C)c2ccccc2C(F)(F)F)c2sccc2n1` (stereo not drawn) [Example 53, N^2-isopropyl-N^4-(1-(2-(trifluoromethyl)phenyl)ethyl)thieno[3,2-d]pyrimidine-2,4-diamine] the value was 1 to 10 nM; for `FC(F)(F)c1cccnc1CNc1ncnc2ccsc12` [Example 61, N-((3-(trifluoromethyl)pyridin-2-yl)methyl)thieno[3,2-d]pyrimidin-4-amine], 1000 to 100000 nM; for `CC1COCCN1c1nc(NCc2ccccc2C(F)(F)F)c2nccnc2n1` (stereo not drawn) [Example 310, 2-(3-methylmorpholino)-N-(2-(trifluoromethyl)benzyl)pteridin-4-amine], 100 to 1000 nM. Consider `CC(Nc1ncnc2c(Br)csc12)c1ccccc1C(F)(F)F` (stereo not drawn) [Example 106, 7-bromo-N-(1-(2-(trifluoromethyl)phenyl)ethyl)thieno[3,2-d]pyrimidin-4-amine], for which the EC50 was 1000 to 100000 nM. Take `FC(F)(F)c1ncccc1CNc1nc(N2CCCC2C(F)(F)F)nc2ncccc12` (stereo not drawn) [Example 264, N-((2-(trifluoromethyl)pyridin-3-yl)methyl)-2-(2-(trifluoromethyl)pyrrolidin-1-yl)pyrido[2,3-d]pyrimidin-4-amine]: the EC50 was less than 0.01 nM. As for `NC(=O)c1nc(NCc2ccccc2C(F)(F)F)c2cccnc2n1` [Example 146, 4-((2-(trifluoromethyl)benzyl)amino)pyrido[2,3-d]pyrimidine-2-carboxamide], the EC50 lay in the range of 1000 to 100000 nM. With `Cc1ccc(Nc2nc(NC(C)C)nc3ccsc23)c(C)c1` [Example 32, N^4-(2,4-dimethylphenyl)-N^2-isopropylthieno[3,2-d]pyrimidine-2,4-diamine], the EC50 lay within 1000 to 100000 nM.

For `COc1nc(N(C)C(C)c2ccccc2C(F)(F)F)c2sccc2n1` (stereo not drawn) [Example 68, 2-methoxy-N-methyl-N-(1-(2-(trifluoromethyl)phenyl)ethyl)thieno[3,2-d]pyrimidin-4-amine], the EC50 lay in the range of 10 to 100 nM. As for `CC(Nc1ncnc2cc(C#N)sc12)c1ccccc1C(F)(F)F` (stereo not drawn) [Example 102, 4-((1-(2-(trifluoromethyl)phenyl)ethyl)amino)thieno[3,2-d]pyrimidine-6-carbonitrile], the figure is 1000 to 100000 nM; as for `C[C@@H]1[C@@H](C)OCCN1c1nc(NCc2cccnc2C(F)(F)F)c2cccnc2n1` [Example 270, 2-((2R,3R)-2,3-dimethylmorpholino)-N-((2-(trifluoromethyl)pyridin-3-yl)methyl)pyrido[2,3-d]pyrimidin-4-amine], 1 to 10 nM; as for `FC(F)(F)c1cccc2c1CN(c1ncnc3ccsc13)C2` [Example 83], 1000 to 100000 nM. As for `CC(C)N(C)c1nc(N2CCOCC2c2ccccc2C(F)(F)F)c2cccnc2n1` (stereo not drawn) [Example 188, N-isopropyl-N-methyl-4-(3-(2-(trifluoromethyl)phenyl)morpholino)pyrido[2,3-d]pyrimidin-2-amine], the figure is 1000 to 100000 nM; as for `Cc1nc(N(C)C(C)c2ccccc2C(F)(F)F)c2sc(C(C)(C)O)cc2n1` (stereo not drawn) [Example 70, 2-(2-methyl-4-(methyl(1-(2-(trifluoromethyl)phenyl)ethyl)amino)thieno[3,2-d]pyrimidin-6-yl)propan-2-ol], 1000 to 100000 nM.

On to `CC(Nc1ncnc2cc(-c3ccccc3)sc12)c1ccccc1C(F)(F)F` (stereo not drawn) [Example 98, 6-phenyl-N-(1-(2-(trifluoromethyl)phenyl)ethyl)thieno[3,2-d]pyrimidin-4-amine], for which the EC50 lay within 1000 to 100000 nM. For `FC(F)(F)c1ccccc1CNc1nc(N2CCOCC23CCCC3)nc2ncccc12` [Example 286, 2-(9-oxa-6-azaspiro[4.5]decan-6-yl)-N-(2-(trifluoromethyl)benzyl)pyrido[2,3-d]pyrimidin-4-amine] the value was 100 to 1000 nM. As for `FC(F)(F)c1ccccc1CNc1nc(NCCN2CCOCC2)nc2ccsc12` [Example 90, N^2-(2-morpholinoethyl)-N^4-(2-(trifluoromethyl)benzyl)thieno[3,2-d]pyrimidine-2,4-diamine], the figure is 1000 to 100000 nM.
